Results taken from patent US20220193163A1, “COMPOSITION COMPRISING ACTINIDIA POLYGAMA EXTRACT FOR ALLEVIATING SKIN DAMAGE OR MOISTURIZING SKIN” (G&P BIOSCIENCE CO., LTD., priority 2019, published 2022).

Tests used:
[1] = DPPH radical-scavenging ability; type: biochemical
Method: DPPH [[…]] is a free-radical compound. […] Accordingly, antioxidant activity can be compared from the ratio of decolorized DPPH radicals. After mixing 50 μL of a 0.36 mM DPPH solution and 50 μL of a test substance dissolved in ethanol at 1:1 and conducting reaction at room temperature in the dark for 30 minutes, absorbance was measured at 540 nm. The DPPH radical-scavenging ability of Example 1, Comparative Example 1 and Comparative Example 2 of different darae species at different concentrations was calculated from the measured absorbance.

[2] = ABTS radical-scavenging ability; type: biochemical
Method: After dissolving 7.4 mM 2,2-azino-bis(3-ethylbenzthiazoline-6-sulfonic acid) and 2.6 mM potassium persulfate respectively in distilled water and mixing at 1:1, ABTS^+ is formed by conducting reaction at room temperature in the dark for 24 hours. 24 hours later, the ABTS solution was diluted to purified water to adjust absorbance at 732 nm to 0.7. Then, after adding 10 μL of a test substance to 190 μL of the ABTS solution and conducting reaction in the dark for 10 minutes, absorbance was measured at 732 nm. The ABTS radical-scavenging ability of Example 1, Comparative Example 1 and Comparative Example 2 of different darae species at different concentrations was calculated from the measured absorbance.

| Compound | DPPH radical-scavenging ability IC50 [1] | ABTS radical-scavenging ability IC50 [2] |
| --- | --- | --- |
| O=C1O[C@H]([C@@H](O)CO)C(O)=C1O [L-Ascorbic acid] | 30 ± 10 µg/mL | – |
| Cc1c(C)c2c(c(C)c1O)CCC(C)(C(=O)O)O2 (centres unmarked) [Trolox] | – | 100 ± 10 µg/mL |
